Source: patent publication US20260009085A1, “METHODS AND COMPOSITIONS FOR THE DIAGNOSIS AND TREATMENT OF CANCER” (Chengdu Anticancer Bioscience, Ltd., priority 2023, published 2026)

Columns and labels:
[1] = system: RPE-NEO; experiment: Model cell screen: CPPC complex localization and cell death, RPE-NEO; format: cell-based, human
Experimental: (§1) In the model screening cell lines, there was an indistinguishable threshold concentration of approximately 20 nM, which was required to show disruption of the CPPC complex by IHC at the spindle midzone and equatorial cortex of anaphase cells, indicating a failure in CPPC relocation. This similarity in the threshold effective concentration for target inhibition is, therefore, not influenced by overexpression of MYC. […] Similar data with other MYC-SL compounds were observed.

[2] = system: RPE-MYC; experiment: Model cell screen: CPPC complex localization and cell death, RPE-MYC; format: cell-based, human
Experimental: as §1

[3] = system: NCI-H23 cells; experiment: Immunofluorescent analysis of AURKB mis-localization (6 hours) and polyploidy (72 hours); format: cell-based, human; settings: 6 hours or 72 hours
Experimental: The proportion of cells with AURKB mis-localization was measured to assess the function of MKLP2 (FIG. 3C). Immunofluorescent analysis of localization of kinetochore proteins AURKB and CREST was determined. Scale bar=10 μm. FIG. 3D is an immunoblot depicting the results of an experiment in which NCI-H23 cells were transiently transfected with MKLP2 siRNA. MKLP2 knockdown efficiency was assayed by immunoblot blot analysis 72 hours after transfection. FIG. 3E are graphs depicting the proportion of cells with AURKB mis-localization after treatment with MKLP2 siRNA after 6 hours of exposure and the proportion of polyploid cells after 72 hours.
Compounds were considered positive for the induction of polyploidy when the percentage of polyploid cells in the interphase population, was ≥5% (with deduction of basal level of polyploid cells) at 72 hours after initiation of treatment (FIG. 3A right panel, FIG. 3B right panel, and FIG. 3E right panel). Polyploid cells were defined as those with multinucleated nuclei, visible upon DAPI staining. The basal level of spontaneous polyploid cells with the screening cell line was less than 1%.
Immunofluorescent (IF) analysis was used to assess enzymatic activity (FIG. 3A left panel, FIG. 3B left panel, and FIG. 3E left panel) and localization of mitotic regulators. […]

[4] = system: Calu6 tumor model; experiment: Calu6 xenograft tumor model (tumor growth, body weight, tumor weight, Ki-67); format: in vivo; settings: Calu6 xenografted mice
Experimental: Xenografted mice were treated with novel antimitotic compounds LXY013, LW33R, and LG157, respectively (FIG. 4A). p-values in FIG. 4A are from Logrank analysis. Tumor growth curves and body weight over the course of the experiments are depicted with vehicle control in black, test compounds in gray (n=6). FIG. 4B is a set of images of tumors and a graph depicting tumor weight at an end-point of 20 days. FIG. 4C is a set of photomicrographs of immunohistochemistry analyses and its quantification, respectively, of Ki-67 expression in xenografts. For LG157, * is p<0.05. p-values in FIG. 4B and FIG. 4C are from multi-parametric analysis. **** is p<0.0001.
Additionally, the volume and weight of tumors in response to the compounds described herein were assessed (FIG. 4A-4B) as well as immunohistochemistry analyses and quantification of Ki-67 expression in xenografts (FIG. 4C).

[5] = IHC at spindle midzone and equatorial cortex of anaphase cells

CNC(=O)c1cc(OC)cc(Oc2ncccc2-c2ccnc(C)c2)c1 [LG157]
cell death [1]: not RPE-NEO cells
threshold concentration required to show disruption of the CPPC complex [1, 5]: approximately 20 nM
cell death [2]: extensive cell death occurred in RPE-MYC
threshold concentration required to show disruption of the CPPC complex [2, 5]: approximately 20 nM
mitotic defects (AURKB mis-localization, polyploidy) [3]: elicit mitotic defects similar to those seen in cells treated with a known mitotic disruptor, paprotrain
tumor growth [4]: inhibition of tumor growth
